Experimental data published in the kinase profiling compilation of Christmann-Franck et al. (2016).

Columns and labels:
Assay in all cases: split-luciferase competition binding
AKT1 (human) = AKT1 (human) (UniProt P31749); conditions: compound 10.0 µM
AKT2 (human) = AKT2 (human) (UniProt P31751); conditions: compound 10.0 µM
AKT3 (human) = AKT3 (human) (UniProt Q9Y243); conditions: compound 10.0 µM
AURKA (human) = AURKA (human) (UniProt O14965); conditions: compound 10.0 µM
AURKB (human) = AURKB (human) (UniProt Q96GD4); conditions: compound 10.0 µM
AURKC (human) = AURKC (human) (UniProt Q9UQB9); conditions: compound 10.0 µM
DMPK (human) = DMPK (human) (UniProt Q09013); conditions: compound 10.0 µM
DMPK (human), sequence (Q09013 whole entry, looked up): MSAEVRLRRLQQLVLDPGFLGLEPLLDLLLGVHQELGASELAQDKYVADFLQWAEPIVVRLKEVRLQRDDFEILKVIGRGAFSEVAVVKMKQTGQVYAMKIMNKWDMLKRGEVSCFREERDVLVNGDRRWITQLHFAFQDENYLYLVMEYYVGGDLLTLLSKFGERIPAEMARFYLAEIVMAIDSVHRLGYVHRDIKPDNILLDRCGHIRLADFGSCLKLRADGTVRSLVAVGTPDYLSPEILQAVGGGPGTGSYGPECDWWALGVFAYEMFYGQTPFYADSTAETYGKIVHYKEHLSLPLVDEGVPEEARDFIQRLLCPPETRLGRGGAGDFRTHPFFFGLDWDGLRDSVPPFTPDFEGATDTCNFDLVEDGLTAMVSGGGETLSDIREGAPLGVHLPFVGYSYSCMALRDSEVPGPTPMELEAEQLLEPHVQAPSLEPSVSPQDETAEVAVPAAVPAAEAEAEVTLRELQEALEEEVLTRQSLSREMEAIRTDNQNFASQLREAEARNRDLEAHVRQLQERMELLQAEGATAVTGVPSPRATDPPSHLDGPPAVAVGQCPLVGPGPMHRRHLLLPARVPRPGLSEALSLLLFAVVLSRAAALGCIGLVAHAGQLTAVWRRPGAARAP

PDPK1 (human) = PDPK1 (human) (UniProt O15530); conditions: compound 10.0 µM
PKN1 (human) = PKN1 (human) (UniProt Q16512); conditions: compound 10.0 µM
PRKCD (human) = PRKCD (human) (UniProt Q05655); conditions: compound 10.0 µM
PRKCD (human), sequence (Q05655 whole entry, looked up): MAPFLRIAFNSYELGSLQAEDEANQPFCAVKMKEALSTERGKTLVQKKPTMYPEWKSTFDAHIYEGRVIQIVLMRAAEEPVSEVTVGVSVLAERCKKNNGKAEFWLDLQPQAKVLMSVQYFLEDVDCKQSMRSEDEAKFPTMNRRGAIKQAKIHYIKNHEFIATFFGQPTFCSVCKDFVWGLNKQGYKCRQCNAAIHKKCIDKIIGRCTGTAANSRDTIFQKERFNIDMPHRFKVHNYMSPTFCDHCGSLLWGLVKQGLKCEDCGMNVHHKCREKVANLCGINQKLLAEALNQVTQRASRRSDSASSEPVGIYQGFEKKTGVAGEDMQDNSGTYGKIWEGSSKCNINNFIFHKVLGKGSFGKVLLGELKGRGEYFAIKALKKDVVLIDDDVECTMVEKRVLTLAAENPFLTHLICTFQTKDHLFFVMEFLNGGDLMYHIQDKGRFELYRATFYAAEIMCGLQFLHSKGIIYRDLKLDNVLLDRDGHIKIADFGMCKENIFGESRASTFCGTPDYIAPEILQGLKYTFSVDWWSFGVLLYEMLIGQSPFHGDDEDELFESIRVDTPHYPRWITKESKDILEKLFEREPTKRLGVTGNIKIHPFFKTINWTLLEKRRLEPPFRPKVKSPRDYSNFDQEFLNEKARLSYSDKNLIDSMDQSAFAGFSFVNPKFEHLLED

PRKCE (human) = PRKCE (human) (UniProt Q02156); conditions: compound 10.0 µM
PRKCG (human) = PRKCG (human) (UniProt P05129); conditions: compound 10.0 µM
PRKCH (human) = PRKCH (human) (UniProt P24723); conditions: compound 10.0 µM
PRKCI (human) = PRKCI (human) (UniProt P41743); conditions: compound 10.0 µM
PRKCQ (human) = PRKCQ (human) (UniProt Q04759); conditions: compound 10.0 µM
PRKCQ (human), sequence (Q04759 whole entry, looked up): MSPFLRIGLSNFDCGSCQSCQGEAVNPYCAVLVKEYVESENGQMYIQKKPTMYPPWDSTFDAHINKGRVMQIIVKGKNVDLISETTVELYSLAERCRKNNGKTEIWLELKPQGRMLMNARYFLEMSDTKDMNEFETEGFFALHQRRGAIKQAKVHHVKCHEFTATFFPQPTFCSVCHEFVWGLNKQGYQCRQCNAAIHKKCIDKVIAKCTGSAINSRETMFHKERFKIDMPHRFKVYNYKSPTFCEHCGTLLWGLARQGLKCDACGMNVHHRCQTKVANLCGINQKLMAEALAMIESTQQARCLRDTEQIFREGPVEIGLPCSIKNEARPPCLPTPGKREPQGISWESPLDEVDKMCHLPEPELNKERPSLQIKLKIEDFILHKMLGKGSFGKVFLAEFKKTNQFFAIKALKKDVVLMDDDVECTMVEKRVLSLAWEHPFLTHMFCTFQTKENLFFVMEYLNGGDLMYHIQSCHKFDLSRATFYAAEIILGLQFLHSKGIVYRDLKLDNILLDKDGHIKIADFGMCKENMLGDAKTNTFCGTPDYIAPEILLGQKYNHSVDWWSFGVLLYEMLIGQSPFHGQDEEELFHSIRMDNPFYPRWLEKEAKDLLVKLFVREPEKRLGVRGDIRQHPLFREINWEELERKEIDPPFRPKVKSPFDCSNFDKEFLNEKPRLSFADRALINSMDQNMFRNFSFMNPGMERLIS

PRKX (human) = PRKX (human) (UniProt P51817); conditions: compound 10.0 µM
PRKX (human), sequence (P51817 whole entry, looked up): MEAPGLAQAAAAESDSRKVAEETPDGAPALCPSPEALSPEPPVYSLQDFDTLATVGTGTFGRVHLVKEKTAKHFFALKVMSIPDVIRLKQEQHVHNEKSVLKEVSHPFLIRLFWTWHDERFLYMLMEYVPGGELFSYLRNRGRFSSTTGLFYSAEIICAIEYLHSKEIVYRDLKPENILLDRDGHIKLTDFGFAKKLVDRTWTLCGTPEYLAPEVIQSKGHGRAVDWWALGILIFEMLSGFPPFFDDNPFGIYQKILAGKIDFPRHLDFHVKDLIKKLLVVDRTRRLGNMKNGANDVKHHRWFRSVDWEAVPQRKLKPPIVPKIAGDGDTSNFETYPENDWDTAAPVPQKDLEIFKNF

RPS6KA1 KD1 (human) = RPS6KA1 KD1 (human) (UniProt Q15418); conditions: compound 10.0 µM
RPS6KA1 KD1 (human), sequence (Q15418 whole entry, looked up): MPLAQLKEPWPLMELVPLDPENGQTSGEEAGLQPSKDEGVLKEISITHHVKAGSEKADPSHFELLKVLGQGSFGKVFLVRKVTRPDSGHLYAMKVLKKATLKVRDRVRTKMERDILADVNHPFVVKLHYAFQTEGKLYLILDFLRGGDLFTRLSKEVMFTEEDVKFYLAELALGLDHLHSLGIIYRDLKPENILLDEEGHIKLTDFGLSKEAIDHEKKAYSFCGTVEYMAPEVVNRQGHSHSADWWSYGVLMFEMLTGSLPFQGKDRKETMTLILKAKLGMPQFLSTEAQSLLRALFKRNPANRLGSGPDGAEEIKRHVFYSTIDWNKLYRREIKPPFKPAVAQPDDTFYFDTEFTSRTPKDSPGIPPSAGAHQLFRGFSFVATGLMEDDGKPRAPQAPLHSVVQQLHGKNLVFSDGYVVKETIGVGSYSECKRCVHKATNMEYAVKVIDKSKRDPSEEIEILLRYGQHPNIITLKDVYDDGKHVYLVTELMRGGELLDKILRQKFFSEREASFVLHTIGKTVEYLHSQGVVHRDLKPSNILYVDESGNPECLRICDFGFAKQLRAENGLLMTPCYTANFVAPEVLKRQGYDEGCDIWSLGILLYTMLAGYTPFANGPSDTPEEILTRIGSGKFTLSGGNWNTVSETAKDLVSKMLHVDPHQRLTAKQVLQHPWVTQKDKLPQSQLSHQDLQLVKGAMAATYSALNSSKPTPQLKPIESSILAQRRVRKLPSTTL

RPS6KA2 KD1 (human) = RPS6KA2 KD1 (human) (UniProt Q15349); conditions: compound 10.0 µM
RPS6KA4 KD1 (human) = RPS6KA4 KD1 (human) (UniProt O75676); conditions: compound 10.0 µM
RPS6KA5 KD1 (human) = RPS6KA5 KD1 (human) (UniProt O75582); conditions: compound 10.0 µM
RPS6KA6 KD1 (human) = RPS6KA6 KD1 (human) (UniProt Q9UK32); conditions: compound 10.0 µM
SGK2 (human) = SGK2 (human) (UniProt Q9HBY8); conditions: compound 10.0 µM
SGK3 (human) = SGK3 (human) (UniProt Q96BR1); conditions: compound 10.0 µM
STK32B (human) = STK32B (human) (UniProt Q9NY57); conditions: compound 10.0 µM
PRKACB (human) = PRKACB (human) (UniProt P22694); conditions: compound 10.0 µM
RPS6KA3 KD1 (human) = RPS6KA3 KD1 (human) (UniProt P51812); conditions: compound 10.0 µM
RPS6KA3 KD1 (human), sequence (P51812 whole entry, looked up): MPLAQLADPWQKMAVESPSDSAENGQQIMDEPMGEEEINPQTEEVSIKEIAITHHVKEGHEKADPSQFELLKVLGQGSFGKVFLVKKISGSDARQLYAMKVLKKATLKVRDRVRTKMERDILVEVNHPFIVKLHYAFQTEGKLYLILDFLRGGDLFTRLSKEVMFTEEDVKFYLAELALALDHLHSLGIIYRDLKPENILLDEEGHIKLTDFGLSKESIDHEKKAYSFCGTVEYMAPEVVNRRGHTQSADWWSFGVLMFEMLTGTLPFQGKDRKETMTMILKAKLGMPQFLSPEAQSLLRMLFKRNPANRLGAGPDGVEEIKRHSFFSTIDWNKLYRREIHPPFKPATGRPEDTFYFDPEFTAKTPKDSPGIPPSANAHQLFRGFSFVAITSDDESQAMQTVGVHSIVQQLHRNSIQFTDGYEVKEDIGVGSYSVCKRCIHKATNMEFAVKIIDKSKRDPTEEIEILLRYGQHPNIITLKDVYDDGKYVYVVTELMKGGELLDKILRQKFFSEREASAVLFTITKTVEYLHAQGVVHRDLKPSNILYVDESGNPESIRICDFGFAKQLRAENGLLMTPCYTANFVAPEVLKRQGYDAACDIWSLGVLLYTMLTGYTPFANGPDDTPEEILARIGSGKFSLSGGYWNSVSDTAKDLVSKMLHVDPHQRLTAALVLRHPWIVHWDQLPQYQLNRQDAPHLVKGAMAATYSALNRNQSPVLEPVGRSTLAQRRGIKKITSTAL

PRKACA (mouse) = conditions: compound 10.0 µM; accession and sequence are those of the human protein

AURKA (human), sequence (O14965 whole entry, looked up): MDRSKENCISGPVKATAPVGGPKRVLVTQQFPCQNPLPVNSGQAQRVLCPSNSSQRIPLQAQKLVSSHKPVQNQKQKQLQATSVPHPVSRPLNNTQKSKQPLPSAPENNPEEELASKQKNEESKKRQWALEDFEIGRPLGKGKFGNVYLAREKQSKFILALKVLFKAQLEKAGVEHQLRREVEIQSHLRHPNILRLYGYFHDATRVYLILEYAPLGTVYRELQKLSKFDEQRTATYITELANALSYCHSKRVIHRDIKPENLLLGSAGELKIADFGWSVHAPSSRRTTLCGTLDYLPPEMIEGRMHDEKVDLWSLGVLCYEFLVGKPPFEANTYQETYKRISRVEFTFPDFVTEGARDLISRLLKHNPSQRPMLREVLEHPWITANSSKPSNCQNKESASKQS
AKT2 (human), sequence (P31751 whole entry, looked up): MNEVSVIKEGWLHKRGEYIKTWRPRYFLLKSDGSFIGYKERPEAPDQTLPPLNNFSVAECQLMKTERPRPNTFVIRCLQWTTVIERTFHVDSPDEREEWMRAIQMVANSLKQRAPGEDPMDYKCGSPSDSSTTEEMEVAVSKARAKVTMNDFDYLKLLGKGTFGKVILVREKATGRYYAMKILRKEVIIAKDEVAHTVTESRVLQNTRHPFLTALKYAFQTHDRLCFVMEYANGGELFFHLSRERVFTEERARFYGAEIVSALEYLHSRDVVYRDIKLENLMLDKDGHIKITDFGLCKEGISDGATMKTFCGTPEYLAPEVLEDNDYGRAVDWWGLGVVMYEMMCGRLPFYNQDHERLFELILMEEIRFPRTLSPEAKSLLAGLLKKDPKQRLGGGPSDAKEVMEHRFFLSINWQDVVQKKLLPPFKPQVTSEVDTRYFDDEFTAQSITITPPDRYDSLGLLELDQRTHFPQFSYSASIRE

inhibition (AKT1 (human)) [%]	inhibition (AKT3 (human)) [%]	inhibition (AURKA (human)) [%]	inhibition (AURKB (human)) [%]	inhibition (AURKC (human)) [%]	inhibition (DMPK (human)) [%]	inhibition (PDPK1 (human)) [%]	inhibition (PKN1 (human)) [%]	inhibition (PRKCD (human)) [%]	inhibition (PRKCE (human)) [%]	inhibition (PRKCH (human)) [%]	inhibition (PRKCI (human)) [%]	inhibition (PRKCQ (human)) [%]	inhibition (PRKX (human)) [%]	inhibition (RPS6KA1 KD1 (human)) [%]	inhibition (RPS6KA2 KD1 (human)) [%]	inhibition (RPS6KA4 KD1 (human)) [%]	inhibition (RPS6KA6 KD1 (human)) [%]	inhibition (SGK3 (human)) [%]	inhibition (STK32B (human)) [%]	SMILES	also measured
0	0	0	0	6	0	0	0	1	0	17	38	1	77	2	0	0	0	0	0	O=S(=O)(c1cccc2cnccc12)N1CCCNCC1	inhibition (AKT2 (human)): 0%; inhibition (PRKCG (human)): 0%; inhibition (RPS6KA5 KD1 (human)): 0%; inhibition (SGK2 (human)): 1%
0	0	19	32	15	18	9	0	4	40	–	0	38	29	4	0	0	10	62	8	O=C(c1ccc(Nc2nccc(-c3cc4ccccc4s3)n2)cc1)N1CCC(N2CCCC2)CC1	inhibition (AKT2 (human)): 0%; inhibition (PRKACA (mouse)): 12%; inhibition (PRKACB (human)): 12%; inhibition (PRKCG (human)): 13%; inhibition (RPS6KA3 KD1 (human)): 2%; inhibition (RPS6KA5 KD1 (human)): 0%; inhibition (SGK2 (human)): 69%
62	78	2	13	10	76	2	36	91	71	81	63	93	32	71	89	56	80	65	63	Cn1cc(C2=C(c3cn(CCCSC(=N)N)c4ccccc34)C(=O)NC2=O)c2ccccc21	inhibition (AKT2 (human)): 28%; inhibition (PRKACA (mouse)): 62%; inhibition (PRKACB (human)): 73%; inhibition (RPS6KA3 KD1 (human)): 87%; inhibition (RPS6KA5 KD1 (human)): 64%; inhibition (SGK2 (human)): 34%
15	0	0	3	0	–	10	0	0	0	1	0	12	8	0	3	0	0	12	19	O=C1NC(=O)c2cc(Nc3ccc(F)cc3)c(Nc3ccc(F)cc3)cc21	inhibition (AKT2 (human)): 0%; inhibition (PRKACA (mouse)): 13%; inhibition (PRKACB (human)): 8%; inhibition (RPS6KA3 KD1 (human)): 0%; inhibition (RPS6KA5 KD1 (human)): 0%; inhibition (SGK2 (human)): 0%
9	0	13	55	66	9	0	2	0	0	0	0	0	7	5	2	0	3	0	1	COc1cc2c(Nc3ccc(NC(=O)c4ccccc4)cc3)ncnc2cc1OCCCN1CCOCC1	inhibition (AKT2 (human)): 0%; inhibition (PRKACA (mouse)): 7%; inhibition (PRKACB (human)): 0%; inhibition (PRKCG (human)): 6%; inhibition (RPS6KA5 KD1 (human)): 0%; inhibition (SGK2 (human)): 0%

The next lines start with the compound.

SMILES	inhibition (AKT1 (human)) [%]	inhibition (AKT3 (human)) [%]	inhibition (AURKA (human)) [%]	inhibition (AURKB (human)) [%]	inhibition (AURKC (human)) [%]	inhibition (DMPK (human)) [%]	inhibition (PDPK1 (human)) [%]	inhibition (PKN1 (human)) [%]	inhibition (PRKCD (human)) [%]	inhibition (PRKCE (human)) [%]	inhibition (PRKCH (human)) [%]	inhibition (PRKCI (human)) [%]	inhibition (PRKCQ (human)) [%]	inhibition (PRKX (human)) [%]	inhibition (RPS6KA1 KD1 (human)) [%]	inhibition (RPS6KA2 KD1 (human)) [%]	inhibition (RPS6KA4 KD1 (human)) [%]	inhibition (RPS6KA6 KD1 (human)) [%]	inhibition (SGK3 (human)) [%]	inhibition (STK32B (human)) [%]	also measured
Cc1ccc(-c2nn(C(C)(C)C)c3ncnc(N)c23)cc1	2	0	0	0	0	28	0	0	0	8	8	0	0	0	27	1	1	14	0	58	inhibition (AKT2 (human)): 0%; inhibition (PRKACB (human)): 0%; inhibition (PRKCG (human)): 0%; inhibition (RPS6KA3 KD1 (human)): 8%; inhibition (RPS6KA5 KD1 (human)): 0%; inhibition (SGK2 (human)): 0%
O=S(=O)(NCCNC/C=C/c1ccc(Br)cc1)c1cccc2cnccc12	21	15	0	2	12	0	0	0	10	9	34	80	40	87	0	0	10	5	41	17	inhibition (AKT2 (human)): 0%; inhibition (PRKACA (mouse)): 67%; inhibition (PRKACB (human)): 75%; inhibition (PRKCG (human)): 0%; inhibition (RPS6KA3 KD1 (human)): 5%; inhibition (RPS6KA5 KD1 (human)): 0%
CCN(CC)CCNC(=O)c1c(C)[nH]c(/C=C2\C(=O)Nc3ccc(F)cc32)c1C	28	26	0	22	30	0	10	0	0	22	39	22	7	25	86	69	86	69	42	0	inhibition (PRKACA (mouse)): 2%; inhibition (PRKACB (human)): 0%; inhibition (PRKCG (human)): 0%; inhibition (RPS6KA3 KD1 (human)): 59%; inhibition (SGK2 (human)): 44%
CO[C@@H]1[C@H](N(C)C(=O)c2ccccc2)C[C@H]2O[C@]1(C)n1c3ccccc3c3c4c(c5c6ccccc6n2c5c31)C(=O)NC4	55	31	26	44	38	29	10	23	52	57	60	65	55	71	56	70	70	75	43	56	inhibition (PRKACA (mouse)): 63%; inhibition (PRKACB (human)): 81%; inhibition (PRKCG (human)): 52%; inhibition (RPS6KA3 KD1 (human)): 79%; inhibition (RPS6KA5 KD1 (human)): 66%; inhibition (SGK2 (human)): 22%
